This assay concerns the target Beta-lactamase (Escherichia coli K-12, UniProt P00811). The experiment in a line: Inhibition of Beta-Lactamase Enzymes: A buffer consisting of 0.1 M sodium phosphate (pH 7.0), 10 mM NaHCO3, and 0.005% Triton X-100 was used for all enzymes. The chromogenic substrate nitrocefin (SynGene, Bangalore, India) was used at 100 μM. Enzyme activity was monitored by the 490 nm absorbance increase upon nitrocefin hydrolysis. Assays were performed in clear polystyrene 384-well plates (Greiner Bio-One, Monroe, N.C.). Absorbance was measured for 1 hour at 30-s intervals using a Spectramax absorbance plate reader (Molecular Devices, Sunnyvale, Calif.). Measurement of beta-lactamase inhibition by INHIBITOR employed serial 3-fold dilutions of the inhibitor in assay buffer, ranging from 100 μM to 62.7 pM. A background absorbance progress curve for a control lacking enzyme and inhibitor was subtracted from each progress curve. The class given is single protein.

Chain of Beta-lactamase (P00811 whole entry): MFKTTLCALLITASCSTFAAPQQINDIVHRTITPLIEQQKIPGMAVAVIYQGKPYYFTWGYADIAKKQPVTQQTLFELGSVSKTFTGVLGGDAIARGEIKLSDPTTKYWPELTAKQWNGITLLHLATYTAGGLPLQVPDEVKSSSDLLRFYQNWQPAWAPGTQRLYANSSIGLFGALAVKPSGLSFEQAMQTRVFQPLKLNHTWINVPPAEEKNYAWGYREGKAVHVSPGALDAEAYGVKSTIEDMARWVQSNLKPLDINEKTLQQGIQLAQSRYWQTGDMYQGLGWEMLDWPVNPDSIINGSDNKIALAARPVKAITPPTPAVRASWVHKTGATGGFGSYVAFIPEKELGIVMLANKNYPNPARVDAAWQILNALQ

Consider `CC1=C[C@@H]2CN(C(=O)N2OC(F)(F)C(=O)O)[C@@H]1C(N)=O`, for which the IC50 amounted to 12 nM. As for `NC(=O)[C@@H]1C(C2CC2)=C[C@@H]2CN1C(=O)N2O[C@@H](F)C(=O)O`, the IC50 was determined as 95 nM. The figure for `CC1=C[C@@H]2CN(C(=O)N2O[C@@H](F)C(=O)O)[C@@H]1C(=O)NCCS(N)(=O)=O` is 4.1 nM; for `CC1=C[C@@H]2CN(C(=O)N2OCC(=O)O)[C@@H]1C(N)=O` it is 1200 nM.

The compound `CC1=C[C@@H]2CN(C(=O)N2O[C@@H](F)C(=O)O)[C@@H]1C(=O)NC1COC1` came in with an IC50 of 54 nM. Compared with the last compound, the IC50 is about 22-fold lower. The same measure for `CC1=C[C@@H]2CN(C(=O)N2O[C@@H](F)C(=O)O)[C@@H]1C(N)=O`: 71 nM; for `CC1=C[C@@H]2CN(C(=O)N2O[C@H](F)C(=O)O)[C@@H]1C(N)=O`: 11 nM; for `CC1=C[C@@H]2CN(C(=O)N2O[C@@H](F)C(=O)O)[C@@H]1C(=O)NOCC1CC1`: 130 nM. The same measure for `CC1=C[C@@H](C(N)=O)N2C[C@@H]1N(O[C@@H](F)C(=O)O)C2=O`: 300 nM; for `CC1=C[C@@H]2CN(C(=O)N2O[C@@H](F)C(=O)O)[C@@H]1C(=O)NCCNS(N)(=O)=O`: 14 nM. The same measure for `CC1=C[C@@H](C(N)=O)N2C[C@@H]1N(OCC(=O)O)C2=O`: 4600 nM.

On to `CC1=C[C@@H](C(N)=O)N2C[C@@H]1N(O[C@H](F)C(=O)O)C2=O`, for which the IC50 came to 160 nM. The same measure for `CC1=C[C@@H]2CN(C(=O)N2O[C@@H](F)C(=O)O)[C@@H]1C(=O)NCO`: 17 nM; for `CC1=C[C@@H]2CN(C(=O)N2O[C@@H](F)C(=O)O)[C@@H]1C(=O)NOC[C@@H]1CC(F)(F)CN1`: 40 nM; for `CC1=C[C@@H]2CN(C(=O)N2O[C@@H](F)C(=O)O)[C@@H]1C(=O)NCCC(N)=O`: 4.4 nM. The figure for `CC1=C[C@@H]2CN(C(=O)N2O[C@@H](F)C(=O)O)[C@@H]1C(=O)NCCNS(C)(=O)=O` is 7.3 nM. `CC1=C[C@@H]2CN(C(=O)N2O[C@@H](F)C(=O)O)[C@@H]1C(=O)NOC[C@@H]1CCC(=O)N1` returned an IC50 of 53 nM. The same measure for `CC1=C[C@@H]2CN(C(=O)N2O[C@@H](F)C(=O)O)[C@@H]1C(=O)NCc1cnccn1`: 2 nM; for `CC1=C[C@@H]2CN(C(=O)N2O[C@@H](F)C(=O)O)[C@@H]1C(=O)NCc1ncco1`: 9.3 nM.

Regarding `CC1=C[C@@H]2CN(C(=O)N2O[C@@H](F)C(=O)O)[C@@H]1C(=O)NOC[C@@H]1CCCN1`, the IC50 came to 410 nM.

Compound `O=C(O)C(F)ON1C(=O)N2C[C@H]1CC[C@H]2C(=O)NC1CCNCC1` (some centres not stated) showed an IC50 of 1600 nM. Against the preceding compound, the IC50 is about 3.9-fold higher. Compound `CC1=C[C@@H]2CN(C(=O)N2O[C@@H](F)C(=O)O)[C@@H]1C(=O)NOCCS(N)(=O)=O` yielded a concentration for half-maximal inhibition (IC50) of 140 nM.

For the compound `CC1=C[C@@H]2CN(C(=O)N2O[C@@H](F)C(=O)O)[C@@H]1C(=O)NCCCS(N)(=O)=O`, the IC50 amounted to 22 nM. The figure for `CC1=C[C@@H]2CN(C(=O)N2O[C@@H](F)C(=O)O)[C@@H]1C(=O)NCC#N` is 14 nM; for `CC1=C[C@@H]2CN(C(=O)N2O[C@@H](F)C(=O)O)[C@@H]1CNC(=O)OC(C)(C)C` it is 44000 nM. The figure for `NC(=O)[C@@H]1CC[C@@H]2CN1C(=O)N2O[C@H](F)C(=O)O` is 2000 nM; for `NC(=O)[C@@H]1C(C2CC2)=C[C@@H]2CN1C(=O)N2O[C@H](F)C(=O)O` it is 22 nM. The same measure for `CC1=C[C@@H](C(N)=O)N2C[C@@H]1N(OC(F)(F)C(=O)O)C2=O`: 36 nM; for `CC1=C[C@@H]2CN(C(=O)N2O[C@@H](F)C(=O)O)[C@@H]1C(=O)NCC[C@@H]1CCC(=O)N1`: 10 nM; for `CC(=O)NNC(=O)[C@@H]1C(C)=C[C@@H]2CN1C(=O)N2OC(F)C(=O)O` (some centres not stated): 8.3 nM. As to `CC1=C[C@@H]2CN(C(=O)N2OC(F)C(=O)O)[C@@H]1C(=O)NCc1cnccn1` (some centres not stated), the IC50 turned out to be 1.8 nM.

As to `CC1=C[C@@H](C#N)N2C[C@@H]1N(O[C@H](F)C(=O)O)C2=O`, the IC50 was determined as 590 nM. This IC50 lies about 330-fold higher than the previous one. The figure for `CC(=O)NCNC(=O)[C@@H]1C(C)=C[C@@H]2CN1C(=O)N2O[C@@H](F)C(=O)O` is 3.1 nM; for `CC1=C[C@@H]2CN(C(=O)N2OC(F)C(=O)O)[C@@H]1c1nnc(C(N)=O)o1` (some centres not stated) it is 180 nM; for `CC1=C[C@@H]2CN(C(=O)N2O[C@@H](F)C(=O)O)[C@@H]1C(=O)NCNS(N)(=O)=O` it is 2.1 nM. As to `CC1=C[C@@H]2CN(C(=O)N2OC(C)(F)C(=O)O)[C@@H]1C(N)=O` (mixture of isomers), half-maximal inhibition (IC50) required 400 nM. Compared with the last compound, the IC50 is about 190-fold higher.

In turn, `CC1=C[C@@H]2CN(C(=O)N2OC(F)C(=O)O)[C@@H]1C(N)=O` (mixture of isomers) came in with an IC50 of 20 nM. Against the preceding compound, the IC50 is about 20-fold lower.

By IC50 is commonly meant the concentration at which inhibition is half-maximal. Low values mean inhibition by little substance, high ones a need for much substance.

These data come from ChEMBL document CHEMBL5728033 (2020).
